Data published in patent US12030880B2, “Iminosulfanone compound as bromodomain protein inhibitor and pharmaceutical composition and medical use thereof” (CHIA TAI TIANQING PHARMACEUTICAL GROUP CO., LTD., priority 2018, dated 2024).

How the values were obtained:
[1] = Animal pharmacokinetic study on compounds; assay type: in vivo; conditions: rat, po; male rats, single intragastric administration, 5 mg/kg, plasma
Experimental: Three healthy adult male rats that obtained from Beijing Vital River Laboratory Animal Technology Co., Ltd were used for the animal pharmacokinetic experiment. A compound was suspended in 2% absolute ethanol, 5% tween 80, 20% polyethylene glycol 400, and 73% (5% hydroxypropylmethyl cellulose in water) (V/V/V/V) at a concentration of 1 mg/mL. The administration volume was 5 mL/kg, and animals were treated with a single intragastric administration at a dose of 5 mg/kg. Animals were fasted overnight prior to the experiment, and the fasting time was from 10 hours before administration to 4 hours after administration. Blood was sampled at 0.25, 0.5, 1, 2, 4, 6, 8 and 24 hours after administration. Animals were lightly anesthetized with isoflurane, and approximately 0.4 mL of whole blood was collected from the orbital venous plexus using a glass blood collection tube, and placed in a heparin anticoagulation tube. The sample was centrifuged at 4200 rpm for 5 minutes at 4° C., and then the plasma was transferred to a centrifuge tube and stored at −80° C. until analyzed. In the plasma sample analysis, test compounds and internal standards (warfarin or propranolol) were extracted from rat plasma by acetonitrile protein precipitation, and the extracts were analyzed by LC/MS/MS. The measured plasma concentration-time data of the individual animals were analyzed using a non-compartmental model of WinNonlin (version no. 5.2.1; Pharsight) software to give pharmacokinetic parameters as shown in Table 3 below: the maximum (peak) plasma drug concentration Cmax; the time to peak Tmax; the half-life T1/2 and the area under the plasma concentration-time curve extrapolated to infinity AUC0-inf.

BRD4 (BD2) = BRD4 (BD2) (Homo sapiens (Human), UniProt O60885); test: In vitro BRD4 (BD2) enzymatic activity assay (HTRF); assay type: binding; conditions: GST-BRD4 (BD2, 349-460 aa)
Experimental: In the present application, IC50 values of the compounds in inhibiting BRD4 (BD2) enzyme binding reaction were determined by homogeneous time resolved fluorescence (HTRF). A compound was serially diluted 5-fold with 100% DMSO starting from 1 mM (7 concentrations in total), and then 2 μL of the compound at each concentration was added to 18 μL of a reaction buffer (20 mM HEPES pH 7.5, 150 mM NaCl, 5 mM DTT, 0.005% Tween 20, and 100 μg/mL BSA) for dilution. After being mixed well, 2 μL of the compound at each concentration was added to 48 μL of the above reaction buffer for dilution, and mixed well (final concentration of the compound in DMSO: 0.1%). 2.5 μL of the resulting mixture was added to a 384-well plate (OptiPlate-384, purchased from PerkinElmer), then 5 μL of GST-BRD4 (BD2, 349-460 aa) (final concentration: 2 nM) was added, and the resulting mixture was centrifuged, and fully mixed. 2.5 μL of a peptide Biotin-AHA-SGRGK(Ac)GGK(Ac)GLGK(Ac)GGAK(Ac) RHRKV (final concentration: 200 nM) was then added to initiate the reaction (total reaction volume: 10 μL). The 384-well plate was placed in an incubator at 23° C. to react for 1 hour, and then 5 μL of Eu3+ cryptate-labled anti-GST antibody (purchased from Cisbio) and 5 μL of Streptavidin-XL-665 (purchased from Cisbio) were added to terminate the reaction. After being incubated in the incubator for another 1 hour, the fluorescence values (excited at 320 nm, emitted light at 665 nm and 620 nm being detected, and the ratio of the two being the enzyme binding signal) were read on Envision (purchased from PerkinElmer). The binding strength of each compound to BRD4 (BD2) protein was determined respectively at 7 concentrations, and the data were calculated using GraphPad Prism software to obtain the IC50 value of the compound.

BRD4 (BD1) = BRD4 (BD1) (Homo sapiens (Human), UniProt O60885); test: In vitro BRD4 (BD1) enzymatic activity assay (HTRF); assay type: binding; conditions: GST-BRD4 (BD1, 44-168 aa)
Experimental: In the present application, IC50 values of the compounds in inhibiting BRD4 (BD1) enzyme binding reaction were determined by homogeneous time resolved fluorescence (HTRF). A compounds was serially diluted 5-fold with 100% DMSO starting from 0.2 mM (7 concentrations in total), and then 2 μL of the compound at each concentration was added to 48 μL of a reaction buffer (20 mM HEPES pH 7.5, 150 mM NaCl, 5 mM DTT, 0.005% Tween 20, and 100 μg/mL BSA) for dilution, and mixed well. 2.5 μL of the resulting mixture was added to a 384-well plate (OptiPlate-384, purchased from PerkinElmer), then 5 μL of GST-BRD4 (BD1, 44-168 aa) (final concentration: 1 nM) was added, and the resulting mixture was centrifuged, and fully mixed. 2.5 μL of a short peptide Biotin-AHA-SGRGK(Ac)GGK(Ac)GLGK(Ac)GGAK(Ac) RHRKV (final concentration: 100 nM) was then added to initiate the reaction (total reaction volume: 10 μL). The 384-well plate was placed in an incubator at 23° C. to react for 1 hour, and then 5 μL of Eu3+ cryptate-labled anti-GST antibody (purchased from Cisbio) and 5 μL of Streptavidin-XL-665 (purchased from Cisbio) were added to terminate the reaction. After being incubated in the incubator for another 1 hour, the fluorescence values (excited at 320 nm, emitted light at 665 nm and 620 nm being detected, and the ratio of the two being the enzyme binding signal) were read on Envision (purchased from PerkinElmer). The binding strength of each compound to BRD4 (BD1) protein was determined respectively at 7 concentrations, and the data were calculated using GraphPad Prism software to obtain the IC50 value of the compound.

MV4-11 cells = test: Cell proliferation activity assay in MV4-11; assay type: cell-based; conditions: Homo sapiens, inhibiting cell proliferation, 72 hours, Cell-Titer Blue
Experimental: (§1) Human acute lymphoblastic leukemia cell line MV4-11 cells were cultured in PRIM1640 medium plus 10% fetal bovine serum (FBS, purchased from Biological Industries, BI) and 1% penicillin/streptomycin double antibody (P/S, purchased from Life Technology) at 37° C. with 5% CO2. On the day before the compound test, MV4-11 cells were spread in a 96-well plate (purchased from Corning) at a concentration of 8000 cells/195 μL/well. After 24 hours, the compound was serially diluted 4-fold with 100% DMSO starting from 10 mM (9 concentrations in total), and then 2 μL of the compound at each concentration was added to 48 μL of PRIM1640 medium for dilution. 5 μL of the diluted compound at each concentration was added to the wells spread with the cell suspension, and the compound and cells were co-incubated in a cell incubator for 72 hours (3 days). Then the mixture was added with 35 μL of Cell-Titer Blue reagent (purchased from Promega) and incubated for another 4 hours. The fluorescence values (excited at 560 nm, detected at 590 nm) were then read on Flexstation III, and the data were calculated using GraphPad Prism software to give IC50 value of the compound in inhibiting cell proliferation.

Kasumi-1 cells = test: Cell proliferation activity assay in Kasumi-1; assay type: cell-based; conditions: Homo sapiens, inhibiting cell proliferation, 72 hours, Cell-Titer Blue
Experimental: as §1, with “myeloblastic” for “lymphoblastic”, “Kasumi-1” for “MV4-11”, “20%” for “10%”, “5000” for “8000”

With `Cn1cc(-c2cc(N=S(C)(C)=O)cnc2Oc2ccc(F)cc2F)c2cc[nH]c2c1=O` [Example 4, 4-{2-(2,4-difluorophenoxy)-5-{[dimethyl(oxo)-λ^6-sulfanylidene]amino}-pyridin-3-yl}-6-methyl-1,6-dihydro-7H-pyrrolo[2,3-c]pyridin-7-one] the AUC(0-inf) [1] was 2.3 µg·h/mL, the Cmax [1] was 0.459 µg/mL and the Tmax [1] was 0.83 h. For the same compound, the half-life [1] was 2.94 h, the IC50 (BRD4 (BD2)) was 0.35 nM and the IC50 (BRD4 (BD1)) was 0.93 nM. It also gave an IC50 (MV4-11 cells) of 8.3 nM and an IC50 (Kasumi-1 cells) of 4.4 nM.

`Cn1cc(-c2cc(N=S(C)(C)=O)ccc2Nc2ccc(F)cc2F)c2cc[nH]c2c1=O` [Example 8, 4-{2-(2,4-difluorophenyl)amino-5-[dimethyl(oxo)-λ^6-sulfanylidene]aminophenyl}-6-methyl-1,6-dihydro-7H-pyrrolo[2,3-c]pyridin-7-one] gave an IC50 (BRD4 (BD2)) of 1.3 nM, an IC50 (BRD4 (BD1)) of 2.4 nM and an IC50 (MV4-11 cells) of 16.1 nM. It also gave an IC50 (Kasumi-1 cells) of 9.3 nM.

Work on `Cn1cc(-c2cc(N=S3(=O)CCCC3)ccc2Oc2ccc(F)cc2F)c2cc[nH]c2c1=O` [Example 15, 4-{2-(2,4-difluorophenoxy)-5-[(1-oxidotetrahydro-1λ^6-thiophen-1-ylidene)amino]phenyl}-6-methyl-1,6-dihydro-7H-pyrrolo[2,3-c]pyridin-7-one] yielded an IC50 (BRD4 (BD2)) of 1.2 nM, an IC50 (BRD4 (BD1)) of 4.5 nM and an IC50 (MV4-11 cells) of 9.1 nM. For the same compound, the IC50 (Kasumi-1 cells) was 13.7 nM.

Work on `Cc1cc(F)cc(C)c1Oc1ccc(N=S(C)(C)=O)cc1-c1cn(C)c(=O)c2[nH]ccc12` [Example 11, 4-{5-{[dimethyl(oxo)-λ^6-sulfanylidene]amino}-2-(4-fluoro-2,6-dimethylphenoxy)phenyl}-6-methyl-1,6-dihydro-7H-pyrrolo[2,3-c]pyridin-7-one] yielded an IC50 (BRD4 (BD2)) of 1.3 nM, an IC50 (BRD4 (BD1)) of 29.4 nM and an IC50 (MV4-11 cells) of 124 nM. It also gave an IC50 (Kasumi-1 cells) of 53.2 nM.

`Cn1cc(-c2nc(N=S(C)(C)=O)ccc2Oc2ccc(F)cc2F)c2cc[nH]c2c1=O` [Example 18, 4-{3-(2,4-difluorophenoxy)-6-{[dimethyl(oxo)-λ^6-sulfanylidene]amino}-pyridin-2-yl}-6-methyl-1,6-dihydro-7H-pyrrolo[2,3-c]pyridin-7-one] gave a half-life [1] of 5.25 h, an IC50 (MV4-11 cells) of 3.14 nM and an IC50 (Kasumi-1 cells) of 1.56 nM.

In the case of `CCOC(=O)c1cc2c(-c3cc(N=S(C)(C)=O)ccc3Oc3c(C)cc(F)cc3C)cn(C)c(=O)c2[nH]1` [Example 14, Ethyl 4-{5-{[dimethyl(oxo)-λ^6-sulfanylidene]amino}-2-(4-fluoro-2,6-dimethylphenoxy)phenyl}-6-methyl-7-oxo-6,7-dihydro-1H-pyrrolo[2,3-c]pyridine-2-carboxylate], the IC50 (BRD4 (BD2)) is reported as 4 nM, the IC50 (BRD4 (BD1)) is reported as 27.9 nM and the IC50 (MV4-11 cells) is reported as 139 nM. It also gave an IC50 (Kasumi-1 cells) of 72 nM.

`Cn1cc(-c2cc(N=S(C)(C)=O)ccc2Oc2ccc(F)cc2F)c2cc[nH]c2c1=O` [Example 5, 4-{2-(2,4-difluorophenoxy)-5-{[dimethyl(oxo)-λ^6-sulfanylidene]amino}phenyl}-6-methyl-1,6-dihydro-7H-pyrrolo[2,3-c]pyridin-7-one] showed an AUC(0-inf) [1] of 2.69 µg·h/mL, a Cmax [1] of 0.61 µg/mL and a Tmax [1] of 1 h. It also gave a half-life [1] of 2.9 h, an IC50 (BRD4 (BD2)) of 0.66 nM and an IC50 (BRD4 (BD1)) of 4.8 nM. The IC50 (MV4-11 cells) was 9.8 nM and the IC50 (Kasumi-1 cells) was 15.4 nM.
